These results are taken from US7858644B2, “EP4 receptor antagonists” (Asterand UK Limited, priority 2003, dated 2010).

SMILES strings stand for the structures.

The target in one assay is T1, human EP4 receptor (Homo sapiens, UniProt P35408).
T1 construct: expressed in transfected cells
Nature of the assay: Binding ability to human EP4 receptor ([3H]PGE2 displacement). The conditions noted are these: read-out: pKi EP4 (converted). On the procedure: Membranes were prepared from cells stably transfected with human EP receptor cDNA. In brief, cells were cultured to confluency, scraped from culture flasks, and centrifuged (800 g, 8 minutes, 4° C.). Cells were twice washed in ice cold homogenisation buffer containing 10 mMTris-HCl, 1 mM EDTA. 2Na, 250 mM sucrose, 1 mM PMSF, 0.3 mM indomethacin, pH 7.4, homogenised and re-centrifuged as before. The supernatant was stored on ice and pellets re-homogenised and re-spun. Supernatants were pooled and centrifuged at 40000 g, 10 minutes, 4° C. Resultant membrane pellets were stored at −80° C. until use.
Incubations were performed at suitable temperatures and for suitable times to allow equilibrium to be reached. Non-specific binding was determined in the presence of 10 uM PGE2. Bound and free radiolabel was separated by vacuum manifold filtration using appropriate wash buffers, and bound radiolabel was determined by scintillation counting. Constituents of each of the buffers are included in table 1 below.
This approach follows that set out in Kenakin, T. P., Pharmacologic analysis of drug receptor interaction. Raven Press, New York, 2nd edition.

In a further assay the target is T2, human EP2 receptor (Homo sapiens, UniProt P43116).
T2 construct: expressed in transfected cells
The experiment in a line: Binding ability to human EP2 receptor ([3H]PGE2 displacement). The conditions noted are these: read-out: pKi EP2 (converted). In outline: (§1)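 Membranes from cells stably transfected with human EP receptor cDNA were incubated to equilibrium with [3H]PGE2 and compound (0.1 to 10 000 nM). Non-specific binding was defined with 10 uM PGE2; bound radioligand was separated by vacuum filtration and counted by scintillation.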

In a further assay the target is T3, human EP3 receptor (Homo sapiens, UniProt P43115).
T3 construct: expressed in transfected cells
T3 sequence (P43115 1-390): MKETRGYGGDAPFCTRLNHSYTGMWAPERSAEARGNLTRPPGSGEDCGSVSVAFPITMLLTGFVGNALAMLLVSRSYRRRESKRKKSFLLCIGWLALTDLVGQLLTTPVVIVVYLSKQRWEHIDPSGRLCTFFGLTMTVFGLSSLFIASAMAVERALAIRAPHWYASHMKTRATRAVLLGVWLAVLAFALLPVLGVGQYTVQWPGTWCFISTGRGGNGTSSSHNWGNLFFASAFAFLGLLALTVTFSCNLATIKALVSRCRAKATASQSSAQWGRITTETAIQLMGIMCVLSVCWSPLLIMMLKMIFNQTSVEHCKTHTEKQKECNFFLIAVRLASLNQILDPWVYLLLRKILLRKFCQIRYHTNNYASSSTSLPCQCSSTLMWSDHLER
The experiment in a line: Binding ability to human EP3 receptor ([3H]PGE2 displacement). The conditions noted are these: membranes from cells stably transfected with human EP receptor cDNA; [3H]PGE2 2.5 nM; Cheng-Prusoff from IC50; read-out: pKi EP3 (converted). In outline: as §1

T1 sequence (P35408 whole entry): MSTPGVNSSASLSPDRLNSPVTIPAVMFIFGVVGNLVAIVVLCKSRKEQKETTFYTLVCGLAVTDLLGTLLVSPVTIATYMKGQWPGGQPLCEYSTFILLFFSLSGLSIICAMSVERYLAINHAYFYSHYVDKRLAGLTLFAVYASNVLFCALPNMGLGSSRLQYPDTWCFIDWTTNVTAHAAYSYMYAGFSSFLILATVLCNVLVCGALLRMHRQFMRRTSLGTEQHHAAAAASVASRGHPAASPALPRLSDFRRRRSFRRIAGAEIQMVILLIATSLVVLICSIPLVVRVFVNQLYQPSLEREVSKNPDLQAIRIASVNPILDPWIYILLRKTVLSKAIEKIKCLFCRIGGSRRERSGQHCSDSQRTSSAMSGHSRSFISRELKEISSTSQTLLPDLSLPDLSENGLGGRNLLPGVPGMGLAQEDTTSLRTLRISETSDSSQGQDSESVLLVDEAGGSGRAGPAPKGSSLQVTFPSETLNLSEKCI
T2 sequence (P43116 whole entry): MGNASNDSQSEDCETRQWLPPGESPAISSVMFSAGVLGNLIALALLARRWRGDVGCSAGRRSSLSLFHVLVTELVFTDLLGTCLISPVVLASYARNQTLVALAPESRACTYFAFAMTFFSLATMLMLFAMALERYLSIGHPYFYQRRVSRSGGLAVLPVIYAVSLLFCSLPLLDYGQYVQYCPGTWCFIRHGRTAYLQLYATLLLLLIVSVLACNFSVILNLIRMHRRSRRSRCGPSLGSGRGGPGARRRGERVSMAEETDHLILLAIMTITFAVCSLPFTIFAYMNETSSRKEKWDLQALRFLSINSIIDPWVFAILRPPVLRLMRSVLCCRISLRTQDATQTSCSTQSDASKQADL

As to `Cc1oc(-c2nnn[nH]2)cc1COc1ccc(-c2ccccc2)cc1` [Compound 149, 5-[4-(Biphenyl-4-yloxymethyl)-5-methyl-furan-2-yl]-1H-tetrazole], the Ki at human EP4 receptor was less than 100 nM; at human EP2 receptor, greater than 10 µM; on human EP3 receptor, greater than 10 µM.

`COc1ccc(-c2ccc(OCc3cc(C(=O)O)oc3C)cn2)cc1` [Compound 56, 4-[6-(4-Methoxy-phenyl)-pyridin-3-yloxymethyl]-5-methyl-furan-2-carboxylic acid]: the Ki is less than 3160 nM at human EP4 receptor, greater than 31.6 µM on human EP2 receptor and greater than 10 µM on human EP3 receptor.

With `Cc1oc(C(=O)O)cc1COc1ccc(-c2cccc(F)c2)cc1` [Compound 104, 4-(3′-Fluoro-biphenyl-4-yloxymethyl)-5-methyl-furan-2-carboxylic acid], the Ki at human EP4 receptor is less than 1000 nM; on human EP2 receptor, greater than 3.16 µM; at human EP3 receptor it was greater than 10 µM.

For `Cc1noc(C)c1S(=O)(=O)NC(=O)c1cc(CNc2ccc(-c3ccc(OC(F)F)cc3)cc2)c(C)o1` [Compound 174, 3,5-Dimethyl-isoxazole-4-sulphonic acid {4-[(4′-difluoromethoxy-biphenyl-4-ylamino)-methyl]-5-methyl-furan-2-carbonyl}-amide], the Ki on human EP4 receptor was less than 10 nM; on human EP2 receptor it was greater than 10 µM; on human EP3 receptor, greater than 10 µM.

Turning to `Cc1oc(S(=O)(=O)NC(=O)c2ccccc2)cc1COc1ccc(-c2ccccc2)cc1` [Compound 46, 4-(Biphenyl-4-yloxymethyl)-5-methyl-furan-2-sulfonic acid benzoylamide], the Ki was less than 100 nM at human EP4 receptor, greater than 10 µM at human EP2 receptor and greater than 10 µM on human EP3 receptor.

On to `COc1ccc(-c2ccc(NC(=O)c3cc(C(=O)NS(=O)(=O)c4ccccc4)oc3C)cc2)cc1` [Compound 25, 5-Benzenesulfonylaminocarbonyl-2-methyl-furan-3-carboxylic acid (4′-methoxy-biphenyl-4-yl)-amide], for which the Ki was less than 316 nM on human EP4 receptor, greater than 10 µM on human EP2 receptor and greater than 10 µM on human EP3 receptor.

`COc1ccc(-c2ccc(OCc3cc(C(=O)O)oc3C(F)(F)F)cc2)cc1` [Compound 94, 4-(4′-Methoxy-biphenyl-4-yloxymethyl)-5-trifluoromethyl-furan-2-carboxylic acid]: the figures for the Ki on human EP4 receptor, on human EP2 receptor and at human EP3 receptor were less than 316 nM, greater than 10 µM and greater than 10 µM, respectively.

`COc1ccc(-c2ccc(OCc3cc(/C=C/C(=O)O)oc3C)cc2)cc1` [Compound 43, 3-[4-(4′-Methoxy-biphenyl-4-yloxymethyl)-5-methyl-furan-2-yl]-acrylic acid]: the figures for the Ki at human EP4 receptor, at human EP2 receptor and at human EP3 receptor were less than 100 nM, greater than 10 µM and greater than 10 µM, respectively.

On to `COc1ccc(-c2ccc(OCc3cc(C(=O)O)oc3C)cc2)c(OC)c1` [Compound 140, 4-(2′,4′-Dimethoxy-biphenyl-4-yloxymethyl)-5-methyl-furan-2-carboxylic acid], for which the Ki was less than 3160 nM at human EP4 receptor, greater than 10 µM on human EP2 receptor and greater than 10 µM on human EP3 receptor.

In the case of `COc1ccc(-c2ccc(OCc3cc(C(=O)NS(=O)(=O)c4ccccc4)oc3C)cc2)[n+]([O-])c1` [Compound 135, N-{4-[4-(5-Methoxy-1-oxy-pyridin-2-yl)-phenoxymethyl]-5-methyl-furan-2-carbonyl}-benzenesulphonamide], the Ki at human EP4 receptor is less than 10000 nM; at human EP2 receptor it was greater than 10 µM; at human EP3 receptor, greater than 10 µM.

As to `O=C(O)c1cc(COc2ccc3c(c2)oc2ccccc23)co1` [Compound 81, 4-(Dibenzofuran-3-yloxymethyl)-furan-2-carboxylic acid], the Ki is less than 3160 nM on human EP4 receptor, greater than 3.16 µM at human EP2 receptor and greater than 10 µM on human EP3 receptor.

As to `Cc1oc(C(=O)O)cc1COc1ccc2c(c1)oc1ccccc12` [Compound 50, 4-(Dibenzofuran-3-yloxymethyl)-5-methyl-furan-2-carboxylic acid], the Ki at human EP4 receptor is less than 3160 nM; on human EP2 receptor, greater than 3.16 µM; at human EP3 receptor it was greater than 10 µM.

In the case of `CCCC(=O)NS(=O)(=O)c1cc(COc2ccc(-c3ccccc3)cc2)c(C)o1` [Compound 61, 4-(Biphenyl-4-yloxymethyl)-5-methyl-furan-2-sulphonic acid butyryl-amide], the values for the Ki at human EP4 receptor, at human EP2 receptor and at human EP3 receptor were less than 1000 nM, greater than 10 µM and greater than 10 µM, respectively.

For `COc1ccc(-c2ccc(OCc3coc(C(=O)O)c3)cc2)cc1` [Compound 80, 4-(4′-Methoxy-biphenyl-4-yloxymethyl)-furan-2-carboxylic acid], the Ki is less than 316 nM on human EP4 receptor, greater than 10 µM at human EP2 receptor and greater than 10 µM on human EP3 receptor.

Regarding `Cc1oc(C(=O)O)cc1COc1ccc(-c2c(F)cccc2F)cc1` [Compound 100, 4-(2′,6′-Difluoro-biphenyl-4-yloxymethyl)-5-methyl-furan-2-carboxylic acid], the Ki on human EP4 receptor is less than 3160 nM; at human EP2 receptor, greater than 10 µM; at human EP3 receptor, greater than 10 µM.

As to `Cc1oc(C(=O)NS(=O)(=O)c2ccccc2)cc1COc1ccc(-c2ncccn2)cc1` [Compound 138, N-[5-Methyl-4-(4-pyrimidin-2-yl-phenoxymethyl)-furan-2-carbonyl]-benzenesulphonamide], the results for the Ki at human EP4 receptor, at human EP2 receptor and on human EP3 receptor were less than 3160 nM, greater than 10 µM and greater than 10 µM, respectively.

As to `COc1ccc(-c2cccc(OCc3cc(C(=O)O)oc3C)c2)cc1OC` [Compound 108, 4-(3′,4′-Dimethoxy-biphenyl-3-yloxymethyl)-5-methyl-furan-2-carboxylic acid], the Ki on human EP4 receptor was less than 3160 nM; on human EP2 receptor, greater than 10 µM; at human EP3 receptor, greater than 10 µM.

For the molecule `Cc1oc(C(=O)O)cc1COc1ccc(-c2ccccc2Cl)cc1` [Compound 99, 4-(2′-Chloro-biphenyl-4-yloxymethyl)-5-methyl-furan-2-carboxylic acid], the Ki was less than 1000 nM at human EP4 receptor, greater than 3.16 µM at human EP2 receptor and greater than 10 µM on human EP3 receptor.

`Cc1oc(C(=O)O)cc1CN(C)c1ccc(-c2ccc(OC(F)F)cc2)cc1` [Compound 176, 4-{[(4′-Difluoromethoxy-biphenyl-4-yl)-methyl-amino]-methyl}-5-methyl-furan-2-carboxylic acid]: the Ki was less than 316 nM at human EP4 receptor, greater than 10 µM on human EP2 receptor and greater than 10 µM on human EP3 receptor.

Take `O=C(O)c1cc(COc2ccc3oc4ccccc4c3c2)c(C(F)(F)F)o1` [Compound 92, 4-(Dibenzofuran-2-yloxymethyl)-5-trifluoromethyl-furan-2-carboxylic acid]: the Ki was less than 3160 nM on human EP4 receptor, greater than 10 µM on human EP2 receptor and greater than 10 µM on human EP3 receptor.

As to `N#Cc1ccc(-c2ccc(OCc3coc(C(=O)O)c3)cc2)cc1` [Compound 79, 4-(4′-Cyano-biphenyl-4-yloxymethyl)-furan-2-carboxylic acid], the Ki was less than 3160 nM on human EP4 receptor, greater than 10 µM on human EP2 receptor and greater than 10 µM on human EP3 receptor.

Regarding `COc1ccc(-c2ccc(OCc3cc(C(=O)NS(=O)(=O)c4c(C)noc4C)oc3C)cc2)c(OC)c1` [Compound 142, 3,5-Dimethyl-isoxazole-4-sulphonic acid [4-(2′,4′-dimethoxy-biphenyl-4-yloxymethyl)-5-methyl-furan-2-carbonyl]-amide], the Ki at human EP4 receptor is less than 100 nM; at human EP2 receptor it was greater than 10 µM; on human EP3 receptor, greater than 10 µM.

For `N#Cc1ccc(-c2ccc(OCc3cc(C(=O)O)oc3C(F)(F)F)cc2)cc1` [Compound 93, 4-(4′-Cyano-biphenyl-4-yloxymethyl)-5-trifluoromethyl-furan-2-carboxylic acid], the Ki at human EP4 receptor was less than 3160 nM; at human EP2 receptor, greater than 10 µM; on human EP3 receptor, greater than 10 µM.

On to `Cc1ccccc1S(=O)(=O)NC(=O)c1cc(CSc2ccc(-c3ccc(OC(F)F)cc3)cc2)c(C)o1` [Compound 154, N-[4-(4′-Difluoromethoxy-biphenyl-4-ylsulphanylmethyl)-5-methyl-furan-2-carbonyl]-2-methyl-benzenesulphonamide], for which the Ki at human EP4 receptor is less than 31.6 nM; at human EP2 receptor it was greater than 3.16 µM; on human EP3 receptor, greater than 1 µM.

As for `COc1ccc(-c2ccc(OCc3cc(CCC(=O)NS(=O)(=O)c4ccccc4)oc3C)cc2)cc1` [Compound 40, N-{3-[4-(4′-Methoxy-biphenyl-4-yloxymethyl)-5-methyl-furan-2-yl]-propionyl}-benzene sulfonamide], the Ki was less than 100 nM at human EP4 receptor, greater than 10 µM at human EP2 receptor and greater than 10 µM on human EP3 receptor.
